Test results: patent publication US7084169B2, “Aminoalkoxyindoles and methods of use” (Roche Palo Alto LLC, priority 2002, dated 2006)

Target: T1, recombinant human 5-HT6 receptor (Homo sapiens, UniProt P50406)
T1 construct: expressed in transfected cells; membranes used
Assay: Radioligand binding studies, competition for [3H]LSD binding in HEK293 cell membranes
Details: [3H]LSD (5 nM), membranes of HEK293 cells stably expressing recombinant human 5-HT6 receptor, pH 7.4, 37° C., 60 min; read-out: 5-HT6 affinity values (pKi) (converted)
Protocol: The binding activity of compounds of this invention in vitro was determined as follows. Duplicate determinations of ligand affinity are made by competing for binding of [^3H]LSD in cell membranes derived from HEK293 cells stably expressing recombinant human 5-HT6 receptor.
All determinations were made in assay buffer containing 50 mM Tris-HCl, 10 mM MgSO4, 0.5 mM EDTA, 1 mM ascorbic acid, pH 7.4 at 37° C., in a 250 microliter reaction volume. Assay tubes containing [^3H] LSD (5 nM), competing ligand, and membrane were incubated in a shaking water bath for 60 min. at 37° C., filtered onto Packard GF-B plates (pre-soaked with 0.3% PEI) using a Packard 96 well cell harvester and washed 3 times in ice cold 50 mM Tris-HCl. Bound [^3H] LSD was determined as radioactive counts per minute using Packard TopCount.
Displacement of [3H]LSD from the binding sites was quantified by fitting concentration-binding data to a 4-parameter logistic equation:
[formula] where Hill is the Hill slope, [ligand] is the concentration of competing radioligand and IC50 is the concentration of radioligand producing half-maximal specific binding of radioligand. The specific binding window is the difference between the Bmax and the basal parameters.

T1 sequence (P50406 whole entry): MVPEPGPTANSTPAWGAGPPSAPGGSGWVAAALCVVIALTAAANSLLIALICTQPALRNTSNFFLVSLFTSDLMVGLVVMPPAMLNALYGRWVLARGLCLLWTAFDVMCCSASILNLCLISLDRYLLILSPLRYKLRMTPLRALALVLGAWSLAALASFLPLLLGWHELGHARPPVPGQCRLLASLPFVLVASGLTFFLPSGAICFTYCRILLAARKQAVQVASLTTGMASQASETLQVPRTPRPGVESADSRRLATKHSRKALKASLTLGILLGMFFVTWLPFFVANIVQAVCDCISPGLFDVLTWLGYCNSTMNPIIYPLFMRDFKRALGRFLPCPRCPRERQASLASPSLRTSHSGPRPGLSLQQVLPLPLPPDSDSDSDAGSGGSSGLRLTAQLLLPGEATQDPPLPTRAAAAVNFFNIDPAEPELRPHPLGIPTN

Structure (SMILES)	Ki [nM]
O=S(=O)(c1ccc(Cl)c(Cl)c1)c1c[nH]c2c(OCCN3CCCC3)cccc12 [3-(3,4-Dichloro-benzenesulfonyl)-7-(2-pyrrolidin-1-yl-ethoxy)-1H-indole]	20
O=S(=O)(c1cccc(Cl)c1)c1c[nH]c2c(OCCN3CCCC3)cccc12 [3-(3-Chloro-benzenesulfonyl)-7-(2-pyrrolidin-1-yl-ethoxy)-1H-indole]	5.01
O=S(=O)(c1ccccc1)c1c[nH]c2c(OCCN3CCCC3)cccc12 [3-Benzenesulfonyl-7-(2-pyrrolidin-1-yl-ethoxy)-1H-indole]	20
O=S(=O)(c1ccccc1Cl)c1c[nH]c2c(OCCN3CCCC3)cccc12 [3-(2-Chloro-benzenesulfonyl)-7-(2-pyrrolidin-1-yl-ethoxy)-1H-indole]	3.98
